Reference: PMC11237035, “Glutathione determines chronic myeloid leukemia vulnerability to an inhibitor of CMPK and TMPK” (Communications Biology, 2024)
pIC50: −log10 of the molar value. “And” between values parts separate entries of the source, which are not always exact repeats. Identical values can stand only once. Blank lines part the entries; values can stand above or below the compound they belong to.

Columns and labels:
hTMPK = target: T1, hTMPK (Homo sapiens, UniProt P23919); assay: biochemical
T1 sequence (P23919 1-212): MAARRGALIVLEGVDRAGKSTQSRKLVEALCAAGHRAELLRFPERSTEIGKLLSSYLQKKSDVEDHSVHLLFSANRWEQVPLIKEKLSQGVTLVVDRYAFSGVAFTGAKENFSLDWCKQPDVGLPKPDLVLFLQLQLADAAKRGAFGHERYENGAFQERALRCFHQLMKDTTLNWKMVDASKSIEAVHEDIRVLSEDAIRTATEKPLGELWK

hCMPK = target: T2, hCMPK (Homo sapiens, UniProt P30085); assay: biochemical
T2 sequence (P30085 1-196): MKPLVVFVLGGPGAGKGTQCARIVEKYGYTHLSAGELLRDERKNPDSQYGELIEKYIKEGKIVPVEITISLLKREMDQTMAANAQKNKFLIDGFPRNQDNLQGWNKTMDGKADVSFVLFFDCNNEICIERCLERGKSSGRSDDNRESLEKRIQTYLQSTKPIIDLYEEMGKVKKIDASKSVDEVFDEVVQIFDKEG

T315I-Bcr-Abl-32D cells [1] = assay: CCK-8 cell viability assay, T315I-Bcr-Abl-32D cells; assay type: cell-based, mouse; conditions: T315I-Bcr-Abl
WT-Bcr-Abl-32D cells = assay: CCK-8 cell viability assay, WT-Bcr-Abl-32D cells; assay type: cell-based, mouse; conditions: WT-Bcr-Abl, single replicates
untransformed 32D cells [2] = assay: CCK-8 cell viability assay, untransformed 32D cells; assay type: cell-based, mouse; conditions: for viability (0 = 100): Untransformed, single replicates
Method: After 72 h, viability assays were performed.
3 independent experiments. Asterisks denote ***p<0.001 from non-paired two-tailed

T315I-Bcr-Abl-32D cells [3] = assay: DNA fiber assay (replication speed), T315I-Bcr-Abl-32D cells; assay type: cell-based, mouse; conditions: T315I-Bcr-Abl cells, UK-5099 25 μM, 16 h
Method: (§1) The workflow of DNA fiber labeling (Right). The representative labeled fibers are shown below. Replication speed in kb/min was calculated by the measured length of IdU (green) linking to CldU (red) in μm with a conversion factor of 0.34 μm/kb divided by the duration of the labeling pulse (Scale bar = 10 μm). The gray triangle indicates the boundary between red fluorescence and green fluorescence. c The measurement of intracellular ROS by the fluorescence intensity of CellROX Green staining using flow cytometric analysis. Data are presented as mean intensity relative to untransformed 32D cells. d, e The measurement of GSSG and GSH. […] Schematic illustration of the metabolic path U-^13C glutamine incorporation into the GSH (left). Gray and white circles indicate ^13C-label, and unlabeled ^12C, respectively. The traced isotopologue abundance of GSH is shown (right).
(§2) The DNA fiber assay was performed as described previously. Briefly, cells were sequentially treated with the medium containing 25 μM of CldU (Sigma-Aldrich, C6891) and then 250 μM of IdU (Sigma-Aldrich, I7125) for 20 min. After washing, cells were suspended in PBS (1000 cells/ μL). 2 μL of cell suspension was spotted on slides. […] The lengths of red- and green-labeled fibers were determined by FluoView3.0 software (Olympus).

T315I-Bcr-Abl-32D cells [4] = assay: dTTP/dCTP pools by RCA-qPCR in T315I-Bcr-Abl-32D cells; assay type: cell-based, mouse; conditions: T315I; replicates
Method: The methanol extracts were centrifuged
For chloroform extraction, same volume of
attomol of the annealed template-primer.
The RCA products were determined by
The thiophenol compound 3 was
(98.5%) after silica gel chromatography.

K562 cells = assay: GSH/GSSG-Glo measurement, K562 cells; assay type: cell-based, human
Method: (§3) After 3 days, cells were analyzed by viability assays.
(§4) The GSH/GSSG-Glo™ Assay Kit (Promega, V6611) was used for luminescent-based measurement of cellular GSH and GSSG by Tecan Spark 10 microplate reader.

untransformed 32D cells [5] = assay: GSH/GSSG-Glo measurement, untransformed 32D cells; assay type: cell-based, mouse; conditions: UK-5099 25 μM, 16 h
Description: as §4

KOPM28 cells = assay: GSH/GSSG-Glo measurement, KOPM28 cells; assay type: cell-based, human
Method: as §3, §4

TCCS cells = assay: GSH/GSSG-Glo measurement, TCCS cells; assay type: cell-based, human
Method: as §3, §4

[6] = test system: T315I-Bcr-Abl-32D cells in C3H/HeNCrNarl mice; conditions: T315I-Bcr-Abl-32D mice, UK-5099 10 mg/kg i.p. daily for 14 days alone, vs vehicle
untransformed 32D cells [7] = assay: DNA fiber assay (replication speed), untransformed 32D cells; assay type: cell-based, mouse; conditions: UK-5099 25 μM, 16 h
Method: as §1, §2

T315I-Bcr-Abl-32D cells [8] = assay: GSH/GSSG-Glo measurement, T315I-Bcr-Abl-32D cells; assay type: cell-based, mouse; conditions: T315I-Bcr-Abl cells, UK-5099 25 μM, 16 h
Description: as §4

pIC50 (hTMPK): 6.54
Structure (SMILES): CC(C)(C)OC(=O)N1CCN(C(=O)Cn2sc3ccccc3c2=O)CC1 [JMF2977]

pIC50 (hCMPK): 5.74
pIC50 (hTMPK): 6.14
Structure (SMILES): CCOC(=O)N1CCN(C(=O)Cn2sc3nc(C)cc(C)c3c2=O)CC1 [YMU1]

Structure (SMILES): O=c1[nH]cc(F)c(=O)[nH]1 [Compound 5-FU, 5-Fluorouracil]
viability at 0.05 µM (T315I-Bcr-Abl-32D cells [1]; Mus musculus, 5-FU 50 nM, single replicates, read-out: viability (0 = 100)): 84.6%
viability at 0.4 µM (T315I-Bcr-Abl-32D cells [1]; Mus musculus, 5-FU 400 nM, single replicates, read-out: viability (0 = 100)): 15%
viability (0 = 100) (T315I-Bcr-Abl-32D cells [1]; 5-FU 50 nM, single replicates): 83.5736 and 80.5085 and 76.4058
viability (0 = 100) (T315I-Bcr-Abl-32D cells [1]; 5-FU 100 nM, single replicates): 62.3323 and 96.9038 and 91.1488 and 80.2051
viability (0 = 100) (T315I-Bcr-Abl-32D cells [1]; 5-FU 200 nM, single replicates): 35.7891 and 57.1142 and 42.6177 and 58.9854
viability (0 = 100) (T315I-Bcr-Abl-32D cells [1]; 5-FU 400 nM, single replicates): 14.7128 and 7.825 and 11.0955
viability (0 = 100) (WT-Bcr-Abl-32D cells; 5-FU 50 nM): 107.177 and 94.9972 and 84.194 and 79.9956
viability (0 = 100) (WT-Bcr-Abl-32D cells; 5-FU 100 nM): 65.5177 and 99.8323 and 74.733 and 69.6887
viability (0 = 100) (WT-Bcr-Abl-32D cells; 5-FU 200 nM): 39.9892 and 67.384 and 54.7054 and 48.7266
viability (0 = 100) (WT-Bcr-Abl-32D cells; 5-FU 400 nM): 24.7745 and 56.1347 and 30.6822 and 26.6217
viability (0 = 100) (untransformed 32D cells [2]; 5-FU 50 nM): 73.4167 and 117.13 and 106.182 and 85.6469
viability (0 = 100) (untransformed 32D cells [2]; 5-FU 100 nM): 72.9576 and 93.7766 and 105.148 and 51.3899
viability (0 = 100) (untransformed 32D cells [2]; 5-FU 200 nM): 35.4417 and 92.003 and 84.6699 and 48.1556
viability (0 = 100) (untransformed 32D cells [2]; 5-FU 400 nM): 6.096 and 36.2787 and 21.177 and 24.9913
sensitivity compared among WT-, T315I-Bcr-Abl-32D and untransformed 32D progenitor cells (untransformed 32D cells [2]; viability assays): similar

Structure (SMILES): N#C/C(=C\c1cn(-c2ccccc2)c2ccccc12)C(=O)O [UK-5099]
replication fork progression (T315I-Bcr-Abl-32D cells [3]): slow replication fork progression
Figure 6d, dCTP relative to NT (=100) (T315I-Bcr-Abl-32D cells [4]): 73.8406 and 210.17 and 73.3898
Figure 6d, dTTP relative to NT (=100) (T315I-Bcr-Abl-32D cells [4]): 74.5764 and 216.09 and 77.7298
GSH% relative to K562 (Figure 7e) (K562 cells; K562, UK-5099 treated, K562 vehicle = 100, per replicate): 52.9657% and 35.7607% and 66.83%
cellular level of GSH (K562 cells; K562 cells, UK-5099 50 μM, 16 h): bring down
effect on GSH reduction, compared with T315I-Bcr-Abl cells (untransformed 32D cells [5]): less
Figure 6c, viability relative to NT (=100) (T315I-Bcr-Abl-32D cells [1]; UK-5099 alone (JMF4073 0), replicates): 99.9363 and 88.5988 and 102.123
GSH% relative to K562 (Figure 7e) (KOPM28 cells; KOPM28, UK-5099 treated, K562 vehicle = 100, per replicate): 180.441% and 154.066% and 117.536%
GSH level (KOPM28 cells; KOPM28 cells, UK-5099 50 μM, 16 h): unchanged
GSH level (TCCS cells; TCCS cells, UK-5099 50 μM, 16 h): unchanged
GSH% relative to K562 (Figure 7e) (TCCS cells; TCCS, UK-5099 treated, K562 vehicle = 100, per replicate): 96.7924% and 63.772% and 96.1621%
survival of leukemia mice [6]: not affected
effect on replication stress, compared with T315I-Bcr-Abl cells (untransformed 32D cells [7]): less
GSH level (T315I-Bcr-Abl-32D cells [8]): reduce GSH levels
Figure 6c, viability relative to NT (=100) (untransformed 32D cells [2]; 32D, UK-5099 alone (JMF4073 0), replicates): 104.358 and 105.293 and 83.4613
